Source: patent US5607937A, “Piperazides of substituted phenylalanine derivatives as thrombin inhibitors” (priority 1993, dated 1997)
Where two headings read alike, the source gives them in different places. Each block holds one compound with its values, some of them ahead of it.

What was measured:
[1] = biological target: T1, trypsin (Bos taurus, UniProt P00760); details: literature; cited from earlier work
T1 sequence (P00760 24-246): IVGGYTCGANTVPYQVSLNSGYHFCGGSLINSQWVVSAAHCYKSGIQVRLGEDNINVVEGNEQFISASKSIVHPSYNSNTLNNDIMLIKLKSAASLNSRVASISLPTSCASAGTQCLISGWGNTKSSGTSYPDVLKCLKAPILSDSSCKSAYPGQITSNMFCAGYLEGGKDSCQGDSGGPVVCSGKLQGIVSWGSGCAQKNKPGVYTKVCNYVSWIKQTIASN

[2] = plasma concentration in rats after intravenous administration; type: in vivo; details: rat; for concentration at 0.25 h: 15 min; for concentration at 0.5 h: 30 min; for concentration at 1 h: 60 min; for elimination in words: i.v.
Method: (§3) A physiological NaCl solution of the substance to be tested was submitted to high pressure liquid chromatography (HPLC) in order to determine its characteristic substance-specific retention time with the chosen test conditions.
(§4) The substance to be tested was diluted in vitro in rat plasma. This solution was also submitted to HPLC to see whether the characteristic peak of the substance once again appeared at the substance-specific retention time.
(§5) Blood samples were taken at time intervals of 15 minutes, from which plasma samples were prepared by centrifugation; those samples were also submitted to HPLC to see whether the characteristic peak of the substance appeared again at the substance-specific retention time.
(§6) After administration, blood samples were taken from the test animals at time intervals from 2 to maximally 360 minutes and the blood level of the compounds to be tested was determined by HPLC.

[3] = plasma concentration in rats after oral administration; type: in vivo; details: rat, oral
Method: as §3, §4, §5, §6

[4] = plasma concentration in rats after rectal administration; type: in vivo; details: rat; for concentration at 0.5 h: 30 min; for concentration at 1 h: 60 min; for concentration at 2 h: 120 min; for concentration at 3 h: 180 min; for concentration at 4 h: 240 min
[5] = in vivo; details: rat
[6] = test system: coagulation in rat plasma; assay: thrombin time in rat plasma after rectal application; type: in vivo; details: rectal 5 mg/kg
Method: (§1) After rectal administration of the compounds to be tested, the anticoagulant effect was determined in the plasma of experimental animals.

[7] = test system: coagulation in rat plasma; assay: aPTT in rat plasma after rectal application; type: in vivo; details: rectal 5 mg/kg
Method: as §1

[8] = concentration in rat plasma in the anticoagulant study after rectal application; type: in vivo; details: rectal 5 mg/kg; for concentration at 0.5 h / concentration at 1 h / concentration at 2 h / concentration at 3 h: plasma; for concentration at 0.5 h: 30 min; for concentration at 1 h: 60 min; for concentration at 2 h: 120 min; for concentration at 3 h: 180 min; for Concentration in plasma: 0 min
[9] = biological target: T2, thrombin (Bos taurus, UniProt P00735); assay: biochemical
[10] = test system: coagulation in human plasma; assay: thrombin time (TT) in human plasma
[11] = biological target: tPA (Homo sapiens, UniProt P00750); assay: inhibition of tPA, dissociation constant Ki
Sequence of tPA (P00750 36-562): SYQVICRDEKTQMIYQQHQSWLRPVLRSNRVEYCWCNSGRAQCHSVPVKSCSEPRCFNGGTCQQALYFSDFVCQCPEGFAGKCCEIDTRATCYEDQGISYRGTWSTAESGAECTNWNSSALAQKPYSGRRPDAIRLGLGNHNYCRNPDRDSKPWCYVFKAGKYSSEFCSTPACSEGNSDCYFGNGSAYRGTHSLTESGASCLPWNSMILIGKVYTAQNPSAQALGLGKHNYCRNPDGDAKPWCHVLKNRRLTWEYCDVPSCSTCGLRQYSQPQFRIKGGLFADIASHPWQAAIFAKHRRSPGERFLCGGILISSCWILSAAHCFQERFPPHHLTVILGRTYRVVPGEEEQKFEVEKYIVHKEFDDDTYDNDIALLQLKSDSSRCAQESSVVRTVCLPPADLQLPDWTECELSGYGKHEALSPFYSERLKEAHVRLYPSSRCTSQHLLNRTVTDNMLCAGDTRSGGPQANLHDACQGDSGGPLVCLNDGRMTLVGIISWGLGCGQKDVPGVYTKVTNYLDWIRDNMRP

[12] = test system: coagulation in human plasma; assay: prothrombin time (PT, Quick value) in human plasma
[13] = biological target: T3, factor XIIa (Homo sapiens, UniProt P00748); assay: inhibition of factor XIIa, dissociation constant Ki; details: Table 1
T3 sequence (P00748 373-615 limits assumed): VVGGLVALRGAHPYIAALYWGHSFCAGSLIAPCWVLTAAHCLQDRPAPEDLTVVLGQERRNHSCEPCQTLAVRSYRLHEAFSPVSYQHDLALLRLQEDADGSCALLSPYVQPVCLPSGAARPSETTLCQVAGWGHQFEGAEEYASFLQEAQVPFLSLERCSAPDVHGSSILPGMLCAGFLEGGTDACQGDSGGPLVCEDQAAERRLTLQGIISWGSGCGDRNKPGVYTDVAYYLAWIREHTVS

[14] = biological target: plasma kallikrein (Homo sapiens, UniProt P03952); assay: inhibition of plasma kallikrein, dissociation constant Ki
Sequence of plasma kallikrein (P03952 391-638 limits assumed, species assumed): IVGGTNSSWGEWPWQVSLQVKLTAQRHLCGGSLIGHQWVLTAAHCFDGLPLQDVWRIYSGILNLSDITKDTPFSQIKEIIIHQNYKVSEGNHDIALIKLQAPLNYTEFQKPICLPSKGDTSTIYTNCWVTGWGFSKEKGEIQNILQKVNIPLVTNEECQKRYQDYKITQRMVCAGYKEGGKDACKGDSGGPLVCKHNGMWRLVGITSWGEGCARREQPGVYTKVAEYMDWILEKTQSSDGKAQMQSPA
Sequence of plasma kallikrein (P03952 20-390 partner limits assumed, species assumed): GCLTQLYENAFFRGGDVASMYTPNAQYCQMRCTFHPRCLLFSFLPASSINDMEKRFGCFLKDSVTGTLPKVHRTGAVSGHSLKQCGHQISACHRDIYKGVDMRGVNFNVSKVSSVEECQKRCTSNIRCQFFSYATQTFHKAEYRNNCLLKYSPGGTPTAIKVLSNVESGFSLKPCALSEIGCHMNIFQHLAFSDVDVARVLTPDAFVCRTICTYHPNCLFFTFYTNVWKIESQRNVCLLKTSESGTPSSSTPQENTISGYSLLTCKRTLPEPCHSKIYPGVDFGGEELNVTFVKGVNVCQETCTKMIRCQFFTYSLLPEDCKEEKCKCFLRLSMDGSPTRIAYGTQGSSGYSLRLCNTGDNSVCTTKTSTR

[15] = biological target: glandular kallikrein (Sus scrofa, UniProt P00752); assay: inhibition of glandular kallikrein, dissociation constant Ki
Sequence of glandular kallikrein (P00752 8-246): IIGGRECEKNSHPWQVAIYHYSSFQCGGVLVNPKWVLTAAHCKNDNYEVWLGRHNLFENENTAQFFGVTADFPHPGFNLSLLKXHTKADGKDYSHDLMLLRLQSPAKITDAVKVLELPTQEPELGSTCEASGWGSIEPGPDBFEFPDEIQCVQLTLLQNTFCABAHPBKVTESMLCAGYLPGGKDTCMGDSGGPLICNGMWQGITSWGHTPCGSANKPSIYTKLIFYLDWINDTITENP

[16] = test system: coagulation in human plasma; assay: activated partial thromboplastin time (aPTT) in human plasma
[17] = biological target: T1, trypsin; assay: inhibition of trypsin, dissociation constant Ki; type: biochemical; set-up: thrombin and the related enzymes trypsin, plasmin, factor Xa, factor XIIa; details: Table 1; read-out: Ki, Trypsin
Method: (§2) The biological activity of the compounds of the present invention was determined in vitro as well as in vivo.

[18] = biological target: factor Xa (Bos taurus, UniProt P00743); assay: inhibition of factor Xa, dissociation constant Ki; type: biochemical; details: Table 1
Sequence of factor Xa (P00743 234-492 limits assumed): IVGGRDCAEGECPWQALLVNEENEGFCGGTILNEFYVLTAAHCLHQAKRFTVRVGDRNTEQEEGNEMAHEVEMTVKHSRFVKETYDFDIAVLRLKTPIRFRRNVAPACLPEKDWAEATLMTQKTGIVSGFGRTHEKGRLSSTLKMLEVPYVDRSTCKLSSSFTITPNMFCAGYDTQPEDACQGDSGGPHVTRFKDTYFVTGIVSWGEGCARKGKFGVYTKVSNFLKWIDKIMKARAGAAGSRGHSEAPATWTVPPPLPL
Sequence of factor Xa (P00743 41-180 partner limits assumed): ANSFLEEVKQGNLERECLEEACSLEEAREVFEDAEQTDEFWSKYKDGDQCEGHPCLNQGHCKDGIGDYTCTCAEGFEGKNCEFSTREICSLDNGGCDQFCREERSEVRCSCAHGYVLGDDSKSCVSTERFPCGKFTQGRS
Method: as §2

[19] = biological target: T2, thrombin
[20] = biological target: plasmin (Homo sapiens, UniProt P00747); assay: inhibition of plasmin, dissociation constant Ki; details: read-out: Ki, Plasmin; Table 1
Sequence of plasmin (P00747 581-810 limits assumed): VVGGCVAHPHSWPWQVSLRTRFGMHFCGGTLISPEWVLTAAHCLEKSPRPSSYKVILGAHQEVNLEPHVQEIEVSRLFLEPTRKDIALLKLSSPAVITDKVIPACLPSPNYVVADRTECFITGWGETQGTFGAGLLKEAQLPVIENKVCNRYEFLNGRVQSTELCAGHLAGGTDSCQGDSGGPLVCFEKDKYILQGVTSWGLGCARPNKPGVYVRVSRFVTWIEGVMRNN
Sequence of plasmin (P00747 97-580 partner limits assumed): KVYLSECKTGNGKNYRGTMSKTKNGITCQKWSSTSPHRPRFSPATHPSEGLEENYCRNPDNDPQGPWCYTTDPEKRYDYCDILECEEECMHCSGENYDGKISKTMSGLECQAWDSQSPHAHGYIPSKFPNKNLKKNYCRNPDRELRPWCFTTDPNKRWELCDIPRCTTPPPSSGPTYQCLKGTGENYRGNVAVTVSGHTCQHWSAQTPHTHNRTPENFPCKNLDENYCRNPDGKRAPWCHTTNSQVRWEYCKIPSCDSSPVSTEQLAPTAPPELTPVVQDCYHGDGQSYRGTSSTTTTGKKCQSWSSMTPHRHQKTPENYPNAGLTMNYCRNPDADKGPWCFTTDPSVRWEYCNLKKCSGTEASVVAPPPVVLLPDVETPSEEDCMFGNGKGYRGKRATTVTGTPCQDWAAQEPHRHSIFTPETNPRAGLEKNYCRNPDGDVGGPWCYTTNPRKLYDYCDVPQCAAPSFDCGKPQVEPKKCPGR

[21] = plasma, intraduodenal 100 mg/kg, 30 min
[22] = read-out: Ki, Thrombin, Table 1
[23] = read-out: Thrombin inhibition Ki, Table 7
[24] = read-out: Ki, Plasma kallikr., Table 1
[25] = read-out: Ki, Gland. kallikr., Table 1

SMILES: CC1CNc2c(cccc2S(=O)(=O)N[C@@H](CCCN=C(N)N)C(=O)N2CC[C@@H](C)C[C@@H]2C(=O)O)C1 (stereo partly drawn) [(2R,4R)-4-methyl-1-[Nα-(3-methyl-1,2,3,5-tetrahydro-8-quinolinesulfonyl)-L-arginine]-2-pipecoline-carboxylic acid]
trypsin-inhibiting activity in words [1]: practically no trypsin-inhibiting activity

SMILES: CC1(C)C2CCC1(CS(=O)(=O)N[C@@H](Cc1cccc(C(=N)N)c1)C(=O)N1CCN(S(C)(=O)=O)CC1)C(=O)C2 (single isomer, unassigned) [Compound 7]
Ki [18]: 1.1 µM
Ki [19, 22]: 0.012 µM
Ki [19, 23]: 0.012 µM
Concentr. to double the Thrombin time [10]: 0.075 µmol/L
concentration to double the TT [10]: less than 10^-7 mol/1
Ki ([11]; read-out: Ki, tPA, Table 1): 20 µM
Ki [20]: 14 µM
Concentr. to double the Prothrombin time [12]: 1.0 µmol/L
concentration to double the PT [12]: ≤ 1 μmol/1
Ki ([13]; read-out: Ki, Factor XIIa): 61 µM
Ki [14, 24]: 25 µM
Ki [15, 25]: > 1000 µM
Concentr. to double the aPTT [16]: 0.55 µmol/L
concentration to double the aPTT [16]: ≤ 1 μmol/1
Ki [17]: 0.22 µM

SMILES: CN(C)C(=O)N1CCN(C(=O)[C@H](Cc2cccc(C(=N)N)c2)NS(=O)(=O)c2ccc3ccccc3c2)CC1 [Compound 6]
Ki [18]: 15 µM
concentration at 5 min ([2]; plasma, iv, i.v. 1 mg/kg): 823 ng/mL
concentration at 0.25 h ([2]; plasma, iv, i.v. 1 mg/kg): 289 ng/mL
concentration at 0.5 h ([2]; plasma, iv, i.v. 1 mg/kg): 194 ng/mL
concentration at 1 h ([2]; plasma, iv, i.v. 1 mg/kg): 141 ng/mL
concentration at 2 h ([2]; plasma, iv, i.v. 1 mg/kg, 120 min): 86 ng/mL
concentration at 3 h ([2]; plasma, iv, i.v. 1 mg/kg, 180 min): 70 ng/mL
elimination in words [2]: eliminated at comparable rate
resorption in words [3]: only slightly resorbed
concentration at 0.5 h ([4]; plasma, rectal 20 mg/kg): 1180 ng/mL
concentration at 1 h ([4]; plasma, rectal 20 mg/kg): 449 ng/mL
concentration at 2 h ([4]; plasma, rectal 20 mg/kg): 850 ng/mL
concentration at 3 h ([4]; plasma, rectal 20 mg/kg): 272 ng/mL
concentration at 4 h ([4]; plasma, rectal 20 mg/kg): 46 ng/mL
concentration at 0.5 h [5, 21]: 20500 ng/mL
concentration at 1 h ([5]; plasma, intraduodenal 100 mg/kg, 60 min): 6500 ng/mL
concentration at 2 h ([5]; plasma, intraduodenal 100 mg/kg, 120 min): 3280 ng/mL
concentration at 3 h ([5]; plasma, intraduodenal 100 mg/kg, 180 min): 2060 ng/mL
concentration at 4 h ([5]; plasma, intraduodenal 100 mg/kg, 240 min): 1500 ng/mL
concentration at 5 h ([5]; plasma, intraduodenal 100 mg/kg, 300 min): 1200 ng/mL
concentration at 6 h ([5]; plasma, intraduodenal 100 mg/kg, 360 min): 1440 ng/mL
Clotting time, Thrombin time ([6]; 0 min): 55.3 s
Clotting time, Thrombin time ([6]; 30 min): > 300 s
Clotting time, Thrombin time ([6]; 60 min): > 300 s
Clotting time, Thrombin time ([6]; 120 min): > 300 s
Clotting time, Thrombin time ([6]; 180 min): 213 s
Clotting time, aPTT ([7]; 0 min): 22.3 s
Clotting time, aPTT ([7]; 30 min): 34.5 s
Clotting time, aPTT ([7]; 60 min): 31.5 s
Clotting time, aPTT ([7]; 120 min): 28.4 s
Clotting time, aPTT ([7]; 180 min): 26 s
concentration at 0.5 h [8]: 648 ng/mL
concentration at 1 h [8]: 362 ng/mL
concentration at 2 h [8]: 157 ng/mL
concentration at 3 h [8]: 83 ng/mL
Concentration in plasma [8]: 0 ng/mL
Ki [9]: 0.004 µM
Concentr. to double the Thrombin time [10]: 0.042 µmol/L
concentration to double the TT [10]: less than 10^-7 mol/1
Ki [11]: > 1000 µM
Concentr. to double the Prothrombin time [12]: 0.65 µmol/L
concentration to double the PT [12]: ≤ 1 μmol/1
Ki ([13]; Ki, Factor XIIa): 51 µM
Ki ([14]; Ki, Plasma kallikr., Table 1): 7.3 µM
Ki [15]: > 1000 µM
Concentr. to double the aPTT [16]: 0.3 µmol/L
concentration to double the aPTT [16]: ≤ 1 μmol/1
Ki [17]: 0.097 µM

Continued, in another order:

concentration at 5 min ([2]; plasma, iv, i.v. 1 mg/kg): 2210 ng/mL
concentration at 0.25 h ([2]; plasma, iv, i.v. 1 mg/kg): 145 ng/mL
concentration at 0.5 h ([2]; plasma, iv, i.v. 1 mg/kg): 313 ng/mL
concentration at 1 h ([2]; plasma, iv, i.v. 1 mg/kg): 112 ng/mL
elimination in words [2]: eliminated at comparable rate
Concentration in plasma ([2]; i.v. 1 mg/kg, 120 min): 0 ng/mL
Concentration in plasma ([2]; i.v. 1 mg/kg, 180 min): 0 ng/mL
resorption in words [3]: only slightly resorbed
concentration at 0.5 h ([4]; plasma, rectal 20 mg/kg): 7260 ng/mL
concentration at 1 h ([4]; plasma, rectal 20 mg/kg): 3800 ng/mL
concentration at 2 h ([4]; plasma, rectal 20 mg/kg): 1740 ng/mL
concentration at 3 h ([4]; plasma, rectal 20 mg/kg): 814 ng/mL
concentration at 4 h ([4]; plasma, rectal 20 mg/kg): 215 ng/mL
concentration at 5 h ([4]; plasma, rectal 20 mg/kg, 300 min): 61 ng/mL
concentration at 6 h ([4]; plasma, rectal 20 mg/kg, 360 min): 34 ng/mL
detectable in plasma after rectal administration ([4]; rectal): ≥ 6 h
concentration at 0.5 h [5, 21]: 3820 ng/mL
Concentration in plasma ([5]; in vivo, other, 100 mg/kg, 120 min): 361 ng/mL
Concentration in plasma ([5]; intraduodenal 100 mg/kg, 30 min, dihydrochloride, 100 mg/kg): 2262 ng/mL
Concentration in plasma ([5]; intraduodenal 100 mg/kg, 60 min, dihydrochloride, 100 mg/kg): 2172 ng/mL
Concentration in plasma ([5]; intraduodenal 100 mg/kg, 60 min, listed as 3*, dihydrochloride, 100 mg/kg): 795 ng/mL
Concentration in plasma ([5]; intraduodenal 100 mg/kg, 120 min): 1457 ng/mL
Concentration in plasma ([5]; intraduodenal 100 mg/kg, 180 min, dihydrochloride, 100 mg/kg): 945 ng/mL
Concentration in plasma ([5]; intraduodenal 100 mg/kg, 180 min, listed as 3*, dihydrochloride, 100 mg/kg): 228 ng/mL
Concentration in plasma ([5]; intraduodenal 100 mg/kg, 240 min, dihydrochloride, 100 mg/kg): 1277 ng/mL
Concentration in plasma ([5]; intraduodenal 100 mg/kg, 240 min, listed as 3*, dihydrochloride, 100 mg/kg): 144 ng/mL
Concentration in plasma ([5]; intraduodenal 100 mg/kg, 300 min, dihydrochloride, 100 mg/kg): 1400 ng/mL
Concentration in plasma ([5]; intraduodenal 100 mg/kg, 300 min, listed as 3*, dihydrochloride, 100 mg/kg): 276 ng/mL
concentration at 0.5 h [8]: 897 ng/mL
concentration at 1 h [8]: 462 ng/mL
concentration at 2 h [8]: 355 ng/mL
concentration at 3 h [8]: 49 ng/mL
Concentration in plasma [8]: 0 ng/mL
Ki [9]: 0.036 µM
Ki [11]: 190 µM
Ki ([13]; Ki, Factor XIIa): 320 µM
Ki [14]: 25 µM
Ki [15]: > 1000 µM
Ki [17]: 0.6 µM
SMILES: Cl.Cl.N=C(N)c1cccc(C[C@H](NS(=O)(=O)c2ccc3ccccc3c2)C(=O)N2CCN(CCO)CC2)c1 [Compound 3, Nα-(2-naphthylsulfonyl)-3-amidino-(L)-phenylalanine-4-(2-hydroxyethyl) -piperazide dihydrochloride]
Clotting time, Thrombin time ([6]; 0 min): 45 s
Clotting time, Thrombin time ([6]; 30 min): 300 s
Clotting time, Thrombin time ([6]; 60 min): 298 s
Clotting time, Thrombin time ([6]; 120 min): 165 s
Clotting time, Thrombin time ([6]; 180 min): 114 s
Clotting time, aPTT ([7]; 0 min): 23.5 s
Clotting time, aPTT ([7]; 30 min): 39.8 s
Clotting time, aPTT ([7]; 60 min): 32.8 s
Clotting time, aPTT ([7]; 120 min): 27.4 s
Clotting time, aPTT ([7]; 180 min): 26.0 s
Concentr. to double the Thrombin time [10]: 0.14 µmol/L
Concentr. to double the Prothrombin time [12]: 1.3 µmol/L
Concentr. to double the aPTT [16]: 0.65 µmol/L

Ki [18]: 6.7 µM
Ki [19, 22]: 0.031 µM
Ki [19, 23]: 0.031 µM
Ki ([11]; read-out: Ki, tPA, Table 1): 82 µM
Ki [20]: 29 µM
Ki ([13]; read-out: Ki, Factor XIIa): 70 µM
Ki [14, 24]: 130 µM
Ki [15, 25]: > 1000 µM
Ki [17]: 0.44 µM
SMILES: CC1(C)C2CCC1(CS(=O)(=O)N[C@@H](Cc1cccc(C(=N)N)c1)C(=O)N1CCN(S(C)(=O)=O)CC1)C(=O)C2 (single isomer, unassigned) [Compound 8]
Concentr. to double the Thrombin time [10]: 0.13 µmol/L
Concentr. to double the Prothrombin time [12]: 2.0 µmol/L
Concentr. to double the aPTT [16]: 1.2 µmol/L
